Read-outs that look alike come from different tables or passages of the source. Blank lines part the entries; values can stand above or below the compound they belong to.
What was measured:
[1] = MTT cytotoxicity assay, HACAT cells; assay type: cell-based; conditions: human; for viability at 24 h, 100 µM: read-out: % Viability ± SD (at 100 μM) HACAT 24 h; for viability at 48 h, 100 µM: read-out: % Viability ± SD (at 100 μM) HACAT 48 h
Experimental: (§1) HEK293, HACAT, and HeLa cells were grown in modified Eagles’ minimum essential medium (EMEM, Gibco) with 10% fetal bovine serum (FBS, Gibco), 1% of 100 U/mL streptomycin and 100 U/mL penicillin (Gibco). Cells were seeded in culture flasks and maintained in an incubator at 37 °C in a humidified atmosphere with 5% CO2. After reaching 80–90% of confluence, cells were detached by incubation with 0.25% trypsin-0.2% EDTA (Gibco) for 5 min and plated for experiments.
(§2) This study examined cell cultures of HEK293, HACAT, and HeLa cells. The cytotoxicity of the test samples was carried out by the MTT (3-(4,5-dimethylthiazol-2-yl)-2,5-diphenyltetrazolium bromide) assay. The cells were seeded in 96-well microliter plates (2.0 × 10^4 cells/well). Stock solutions of the test compounds were prepared in DMSO. After 24 h, cells were treated with different concentrations of samples and diluted with media to obtain the final desired concentration. The treated cells were then incubated at 37 °C and 5% CO2 for 24 and 48 h. After incubation, the medium was replaced with 0.05% w/v of MTT solution in PBS and further incubated for 3 h. The solution was then discarded and DMSO was added to dissolve the formed formazan crystals. Each well’s absorbance (A) was measured at 570 nm using a microplate reader (FLUOstar Omega^TM, BMG Labtech, Ortenberg, Germany). All experiments were carried out in triplicate and repeated for at least three experiments.

[2] = ABTS radical cation scavenging assay; assay type: biochemical
Description: (§3) Three in vitro antioxidant assays (DPPH, FRAP, and ABTS) were utilized to evaluate the antioxidant property of the synthesized compounds. The DPPH (α, α-diphenyl-β-picrylhydrazyl) assay is the well-known approach to determine antioxidant activity using a stable free radical DPPH, measure the absorbance change, and calculate the absorbance change in the percentage of scavenging activity. […] For example, the ferric-tripyridyltriazine (Fe^3+-TPTZ, colorless) complex is reduced to ferrous tripyridyltriazine (Fe^2+-TPTZ) at low pH and introduces a blue color with maximum absorption at 593 nm. The change in absorbance is related to antioxidant activity. However, a significant limitation of these in vitro tests is the non-physiological measurement conditions (no enzymatic condition and no transition metal ion chelating activity); therefore, the results obtained may not reflect the antioxidant activity of the source material under the biological conditions that exist in humans and animals. The ABTS assay involves a more drastic radical that is chemically produced. The use of ABTS for antioxidant activity determination of hydrophilic and lipophilic pure compounds has attracted interest due to its solubility in organic and aqueous media and stability in a wide pH range [31].
The ABTS assay was prepared by reaction of 5 mL of a 7 mM aqueous ABTS (2,2′-azino-bis (3-ethylbenzthiazoline-6-sulphonic acid) solution and 2.45 mM potassium persulfate solution (K2S2O8). After preparation and storage in the dark for 16 h, the radical cation solution was further diluted in ethanol to absorb about 0.7 at 734 nm. Trolox and test sample solutions were prepared in stock solution with DMSO and diluted with ethanol. A solution of 100 μL of the sample was mixed with 100 μL of the ABTS reagent in a 96-well plate. The mixture was shaken in a dark place for 10 min and incubated at 37 °C for 20 min, and the absorbance was determined at 734 nm. Absorbance determinations were recorded immediately and not more than 1 h after adding the reagent. The solution without the sample was used as a blank. All the determinations were made in triplicate. The sample’s scavenging percentage was calculated from this equation: scavenging percentage = (Absorbance control − Absorbance sample) × 100/Absorbance control. EC50 values were calculated from the relationship curve of %scavenging versus sample concentration.

[3] = MTT cytotoxicity assay, HEK293 cells; assay type: cell-based; conditions: human, HEK293 cells, 100 μM; for viability at 24 h, 100 µM: read-out: % Viability ± SD (at 100 μM) HEK293 24 h; for viability at 48 h, 100 µM: read-out: % Viability ± SD (at 100 μM) HEK293 48 h
Experimental: as §1, §2

HEK293 cells = test: MTT cytotoxicity assay, HEK293 cells; assay type: cell-based; conditions: 24 and 48 h treatment
Experimental: as §1, §2

HeLa cell = test: MTT anticancer activity assay, HeLa cells; assay type: cell-based
Experimental: as §1, §2

[4] = FRAP (ferric reducing antioxidant power) assay; assay type: biochemical; conditions: Trolox equivalent
Description: as §3
The FRAP assay is a method for assessing antioxidant power. Briefly, the FRAP reagent was prepared from acetate buffer pH 3.6, 10 mM TPTZ solution in 40 mM HCl and 20 mM FeCl3.6 H2O in relative proportions of 10:1:1, v/v, respectively. The FRAP reagent was freshly prepared daily. A solution of 5 μL of the sample (3–300 μM, approx.) was mixed with 180 μL of the FRAP reagent in a 96-well plate. The mixture was shaken in the dark for 10 min and incubated at 37 °C for 20 min, and the absorbance was determined at 593 nm. The solution without the sample was used as a blank. All determinations were made in triplicate. Trolox was used as a standard antioxidant and plot the calibration curve between absorbance and concentration. Quercetin was applied as the reference compound. The FRAP values were calculated by comparing the absorbance change in the test sample and represented in μM of Trolox equivalent per μM of sample.

[5] = DPPH radical scavenging assay; assay type: biochemical; design: DPPH517nm % SA ± SD: dose or concentration left out as unconfirmed; conditions: for DPPH517nm % SA ± SD: mean of three measurements
Description: as §3
The DPPH method was followed and modified from a previous study. Trolox was used as a reference. The DPPH stock solution at a concentration of 0.625 mM was prepared in 50% ethanol and kept at 4 °C in the dark. On the day of the experiment, 0.208 mM fresh DPPH working solution was freshly prepared by further diluting with 50% ethanol. […] Each reaction was carried out in a 96-well plate, and 100 μL of test preparation and DPPH solution were added. The 96-well plate was then shaken well for 10 min and kept in the dark at room temperature for 20 min, and the absorbance was recorded at 515–517 nm. According to the method described, delocalization also results in a deep violet color and is quantified as a percentage of scavenging activity. % scavenging activity (SA) = 100 × (Asample − Ablank)/(Acontrol − Ablank)(1) where Acontrol and Asample are the absorbances of the test DPPH without and with a sample, respectively. Ablank is the absorbance of the solvent used. The EC50 values were calculated from the relationship curve of %SA versus sample concentration. The experiment was carried out at least in triplicate.

HeLa cells = test: Cellular ROS assay (ROS deep red fluorescence kit); assay type: cell-based; conditions: pretreatment 50, 100, 150 μM for 24 h; 5 mM H2O2 30 min
Experimental: ROS is the main contributor to cell death. These reactive molecules are formed by several mechanisms and can be detected by various techniques. In order to investigate the level of cellular ROS after treatment with compounds, the accumulation of intracellular ROS in cells was quantified with a cellular ROS assay kit (ab186029, Abcam, Boston, USA) fluorescence assay. After pretreatment with 2f, 2j, and 3i at 50, 100, and 150 μM for 24 h, cell stress was induced with 5 mM hydrogen peroxide for 30 min. The cells in each well were collected and resuspended with a serum-free medium containing the ROS red probe. Subsequently, cells were incubated at 37 °C for 30 min in the dark, and fluorescence was read at Ex/Em = 650/675 nm.
In this study, Hela cells were seeded overnight at 20,000 cells/90 µL/well in a black wall/clear bottom 96-well plate. Cells included those untreated (control) and those pre-treated with compounds at various concentrations (50, 100, 150 μM) for 24 h. The ROS deep red assay solution (100 μL/well) was added and incubated at 5% CO2, 37 °C incubator for 30 min. The fluorescence signal was monitored at Ex/Em = 650/675 nm (cut off = 665 nm) with bottom read mode within 30 min (cellular ROS assay kit, ab186029, abcam).

[6] = Homo sapiens, 24 h, read-out: % Viability ± SD (at 100 μM) HeLa 24 h
[7] = Homo sapiens, 48 h, read-out: % Viability ± SD (at 100 μM) HeLa 48 h

SMILES: O=C(c1ccc([N+](=O)[O-])cc1)c1c(-c2ccc([N+](=O)[O-])cc2)oc2cc(O)ccc2c1=O [2i, 7-hydroxy-3-(4-nitrobenzoyl)-2-(4-nitrophenyl)-4H-chromen-4-one]
viability at 24 h, 100 µM [1]: 59.8 ± 5.77% | viability at 48 h, 100 µM [1]: 27.5 ± 1.24% | melting point: 290 to 291 °C | ABTS734nm % Scavenging at 500 µM [2]: 8.52 ± 3.89% | viability at 24 h, 100 µM [3]: 65.1 ± 1.21% | viability at 48 h, 100 µM [3]: 41.2 ± 2.11% | Toxicity in HEK293 cells (HEK293 cells): more toxic | IC50 (HeLa cell; 24 h): 34.9 ± 2.41 µM | Anticancer activity on cervical cancer cells (HeLa cell; HeLa, 24 h): contained anticancer activity | IC50 (HeLa cell; Homo sapiens, HeLa, 24 h): 34.9 µM | viability at 100 µM (HeLa cell; [6]): 38.7 ± 5.22% | viability at 100 µM (HeLa cell; [7]): 12.5 ± 1.45% | FRAP593nm Value ± SD (TE) [4]: 0.08 ± 0.006 µM Trolox/1 µM of Synthesized Compounds | DPPH517nm % SA ± SD [5]: 13.75 ± 3.31%

EC50 ([2]; read-out: ABTS734nm EC50 ± SD): 13.9 ± 0.74 µM | EC50 ([5]; read-out: DPPH517nm EC50 ± SD): 59 ± 11.2 µM
SMILES: CC(=O)c1ccc(O)c(O)c1OC(=O)c1ccccc1 [3i, 6-Acetyl-2,3-dihydroxyphenyl benzoate]
viability at 24 h, 100 µM [1]: 104.8 ± 0.88% | viability at 48 h, 100 µM [1]: 84.9 ± 3.05% | ABTS734nm % Scavenging at 500 µM [2]: 78.80 ± 1.14% | viability at 24 h, 100 µM [3]: 110 ± 1.2% | viability at 48 h, 100 µM [3]: 107 ± 4.18% | viability at 100 µM (HeLa cell; [6]): 99.9 ± 4.19% | viability at 100 µM (HeLa cell; [7]): 37.1 ± 1.96% | Cellular ROS fluorescence intensity vs H2O2-treated cells (HeLa cells): decreased significantly | FRAP593nm Value ± SD (TE) [4]: 3.16 ± 0.350 µM Trolox/1 µM of Synthesized Compounds | DPPH517nm % SA ± SD [5]: 90.55 ± 0.36%

melting point: 122 to 124 °C
SMILES: CC(=O)c1ccc(O)cc1OC(=O)c1ccco1 [compound 4, 2-Acetyl-5-hydroxyphenyl furan-2-carboxylate]
viability at 24 h, 100 µM [1]: 85.7 ± 5.6% | viability at 48 h, 100 µM [1]: 72.2 ± 1.81% | ABTS734nm % Scavenging at 500 µM [2]: 14.51 ± 1.94% | viability at 24 h, 100 µM [3]: 97.99 ± 0.4% | viability at 48 h, 100 µM [3]: 108 ± 2.84% | viability at 100 µM (HeLa cell; [6]): 86.1 ± 3.24% | viability at 100 µM (HeLa cell; [7]): 91.07 ± 0.65% | FRAP593nm Value ± SD (TE) [4]: 0.00 ± 0.001 µM Trolox/1 µM of Synthesized Compounds | DPPH517nm % SA ± SD [5]: 0.99 ± 0.71%

— paper PMC10096453, “One-Pot Synthesis and Evaluation of Antioxidative Stress and Anticancer Properties of an Active Chromone Derivative” (Molecules, 2023)
